Results as given in US20260183297A1, “SELECTION OF PATIENTS FOR THE TREATMENT OF FADS1-MEDIATED DISEASES OR DISORDERS USING FADS-1 INHIBITORS” (AMGEN INC., priority 2022, published 2026).
Marks after values point to notes of the source that are not given here.

Test: Fatty acid concentration and composition of plasma lipid subfractions (GC) of Compound A-treated DIO mice
Format: in vivo, mouse
Conditions: DIO mouse plasma, 30 mg/kg, GC
Description: FIG. 16(b) provides fatty acid composition of total plasma and each of the 4 plasma lipid subfractions of vehicle treated (WT) and 30 mg/kg Compound A-treated WT DIO mice (WT+A). (a-b) n=3 samples per group (each sample pooled from 2 mice). (a) Data are shown as minimum to maximum. t-test *P<0.05, **P<0.01, ***P<0.001.

[1] = Phospholipids, mean % composition
[2] = Total lipids, mean % composition
[3] = Triglycerides, mean % composition

COc1ccn2c(=O)c(-c3cnn(CC(F)(F)C(F)(F)F)c3)c(C(F)(F)F)nc2c1 [Compound A, 8-methoxy-3-(1-(2,2,3,3,3-pentafluoropropyl)-1H-pyrazol-4-yl)-2-(trifluoromethyl)-4H-pyrido[1,2-a]pyrimidin-4-one]
C16:1n7t composition, Phospholipids [1]: 0.05% | C18:0 composition, Phospholipids [1]: 14.4*** % | C18:1n9 composition, Phospholipids [1]: 12.3** % | C18:1t composition, Phospholipids [1]: 0.18% | C18:2n6 composition, Phospholipids [1]: 19.0% | C18:2n6t composition, Phospholipids [1]: 0.22** % | C18:3n3 composition, Phospholipids [1]: 0.05% | C18:3n6 composition, Phospholipids [1]: 0.2* % | C20:0 composition, Phospholipids [1]: 0.07* % | C20:1n9 composition, Phospholipids [1]: 0.28% | C20:2n6 composition, Phospholipids [1]: 0.43* % | C20:3n6 composition, Phospholipids [1]: 18.2*** % | C20:4n6 composition, Phospholipids [1]: 1.49*** % | C20:5n3 composition, Phospholipids [1]: 0.06* % | C22:0 composition, Phospholipids [1]: 0.08% | C22:4n6 composition, Phospholipids [1]: 0.10*** % | C22:5n3 composition, Phospholipids [1]: 0.61% | C22:5n6 composition, Phospholipids [1]: 0.09** % | C22:6n3 composition, Phospholipids [1]: 3.33*** % | C24:0 composition, Phospholipids [1]: 0.04% | C24:1n9 composition, Phospholipids [1]: 0.16% | C14:0 concentration, Total (Total lipids, mean): 7.7 µg/mL | C16:0 concentration, Total (Total lipids, mean): 635 µg/mL | C16:1n7 concentration, Total (Total lipids, mean): 41.4 µg/mL | C18:0 concentration, Total (Total lipids, mean): 285** μg mL^−1 | C18:1n9 concentration, Total (Total lipids, mean): 478 µg/mL | C18:1t concentration, Total (Total lipids, mean): 3.6 µg/mL | C18:2n6 concentration, Total (Total lipids, mean): 870 µg/mL | C18:2n6t concentration, Total (Total lipids, mean): 6.0 µg/mL | C18:3n3 concentration, Total (Total lipids, mean): 5.9** μg mL^−1 | C18:3n6 concentration, Total (Total lipids, mean): 23.3** μg mL^−1 | C20:0 concentration, Total (Total lipids, mean): 2.3** μg mL^−1 | C20:1n9 concentration, Total (Total lipids, mean): 8.4 µg/mL | C20:3n6 concentration, Total (Total lipids, mean): 465*** μg mL^−1 | C20:4n6 concentration, Total (Total lipids, mean): 92.3** μg mL^−1 | C20:5n3 concentration, Total (Total lipids, mean): 2.7** μg mL^−1 | C22:0 concentration, Total (Total lipids, mean): 3.3** μg mL^−1 | C22:4n6 concentration, Total (Total lipids, mean): 2.1*** μg mL^−1 | C22:5n3 concentration, Total (Total lipids, mean): 2.8*** μg mL^−1 | C22:5n6 concentration, Total (Total lipids, mean): 2.4*** μg mL^−1 | C22:6n3 concentration, Total (Total lipids, mean): 98.5** μg mL^−1 | C24:1n9 concentration, Total (Total lipids, mean): 6.9 µg/mL | Total fatty acids concentration, Total (Total lipids, mean): 3058* μg mL^−1 | C14:0 composition, Total [2]: 0.25% | C16:0 composition, Total [2]: 20.8% | C16:1n7 composition, Total [2]: 1.35% | C16:1n7t composition, Total [2]: 0.1% | C18:0 composition, Total [2]: 9.3% | C18:1n9 composition, Total [2]: 15.7% | C18:1t composition, Total [2]: 0.12% | C18:2n6 composition, Total [2]: 28.5% | C18:2n6t composition, Total [2]: 0.2% | C18:3n3 composition, Total [2]: 0.19% | C18:3n6 composition, Total [2]: 0.76% | C20:0 composition, Total [2]: 0.08% | C20:1n9 composition, Total [2]: 0.27% | C20:2n6 composition, Total [2]: 0.32% | C20:3n6 composition, Total [2]: 15.2% | C20:4n6 composition, Total [2]: 3.01% | C20:5n3 composition, Total [2]: 0.09*** % | C22:0 composition, Total [2]: 0.11% | C22:4n6 composition, Total [2]: 0.07*** % | C22:5n3 composition, Total [2]: 0.09*** % | C22:5n6 composition, Total [2]: 0.08*** % | C22:6n3 composition, Total [2]: 3.22% | C24:0 composition, Total [2]: 0.06% | C24:1n9 composition, Total [2]: 0.23** % | C14:0 concentration, Triglycerides (Triglycerides, mean): 26.7 µg/mL | C16:0 concentration, Triglycerides (Triglycerides, mean): 135 µg/mL | C16:1n7 concentration, Triglycerides (Triglycerides, mean): 6.2 µg/mL | C16:1n7t concentration, Triglycerides (Triglycerides, mean): 0.7 µg/mL | C18:0 concentration, Triglycerides (Triglycerides, mean): 80.4 µg/mL | C18:1n9 concentration, Triglycerides (Triglycerides, mean): 161* μg mL^−1 | C18:1t concentration, Triglycerides (Triglycerides, mean): 6.1 µg/mL | C18:2n6 concentration, Triglycerides (Triglycerides, mean): 42.6** μg mL^−1 | C18:2n6t concentration, Triglycerides (Triglycerides, mean): 9.0 µg/mL | C18:3n3 concentration, Triglycerides (Triglycerides, mean): 1.8 µg/mL | C18:3n6 concentration, Triglycerides (Triglycerides, mean): 0.7 µg/mL | C20:0 concentration, Triglycerides (Triglycerides, mean): 1.6 µg/mL | C20:1n9 concentration, Triglycerides (Triglycerides, mean): 5.6* μg mL^−1 | C20:2n6 concentration, Triglycerides (Triglycerides, mean): 1.7 µg/mL | C20:3n6 concentration, Triglycerides (Triglycerides, mean): 8.3 µg/mL | C20:4n6 concentration, Triglycerides (Triglycerides, mean): 2.5*** μg mL^−1 | C20:5n3 concentration, Triglycerides (Triglycerides, mean): 3.7** μg mL^−1 | C22:0 concentration, Triglycerides (Triglycerides, mean): 3.5 µg/mL | C22:4n6 concentration, Triglycerides (Triglycerides, mean): 2.5* μg mL^−1 | C22:5n3 concentration, Triglycerides (Triglycerides, mean): 49.9* μg mL^−1 | C22:5n6 concentration, Triglycerides (Triglycerides, mean): 2.5 µg/mL | C22:6n3 concentration, Triglycerides (Triglycerides, mean): 0.6** μg mL^−1 | C24:0 concentration, Triglycerides (Triglycerides, mean): 1.2 µg/mL | C24:1n9 concentration, Triglycerides (Triglycerides, mean): 2.3 µg/mL | Total fatty acids concentration, Triglycerides (Triglycerides, mean): 556* μg mL^−1 | C14:0 composition, Triglycerides [3]: 4.77* % | C16:0 composition, Triglycerides [3]: 24.2% | C16:1n7 composition, Triglycerides [3]: 1.10% | C16:1n7t composition, Triglycerides [3]: 0.12% | C18:0 composition, Triglycerides [3]: 14.5% | C18:1n9 composition, Triglycerides [3]: 29.0% | C18:1t composition, Triglycerides [3]: 1.09% | C18:2n6 composition, Triglycerides [3]: 7.68** % | C18:2n6t composition, Triglycerides [3]: 1.64* % | C18:3n3 composition, Triglycerides [3]: 0.33% | C18:3n6 composition, Triglycerides [3]: 0.13% | C20:0 composition, Triglycerides [3]: 0.28% | C20:1n9 composition, Triglycerides [3]: 1.01% | C20:2n6 composition, Triglycerides [3]: 0.31% | C20:3n6 composition, Triglycerides [3]: 1.5% | C20:4n6 composition, Triglycerides [3]: 0.46*** % | C20:5n3 composition, Triglycerides [3]: 0.67% | C22:0 composition, Triglycerides [3]: 0.63% | C22:4n6 composition, Triglycerides [3]: 0.45% | C22:5n3 composition, Triglycerides [3]: 8.98*** % | C22:5n6 composition, Triglycerides [3]: 0.45* % | C22:6n3 composition, Triglycerides [3]: 0.12*** % | C24:0 composition, Triglycerides [3]: 0.23% | C24:1n9 composition, Triglycerides [3]: 0.41% | EPA/AA, Cholesterol ester (Table 5.5) (ratio, Cholesterol ester): 0.039* | EPA/AA, Cholesterol ester (Table 5.6) (ratio, Cholesterol ester): 0.039* | EPA/AA, Free fatty acids (Table 5.5) (ratio, Free fatty acids): 2.94* | EPA/AA, Free fatty acids (Table 5.6) (ratio, Free fatty acids): 2.94* | EPA/AA, Phospholipids (Table 5.5) (ratio, Phospholipids): 0.038* | EPA/AA, Phospholipids (Table 5.6) (ratio, Phospholipids): 0.038 | EPA/AA, Total (Table 5.5) (ratio, Total lipids): 0.030** | EPA/AA, Total (Table 5.6) (ratio, Total lipids): 0.030** | EPA/AA, Triglycerides (Table 5.5) (ratio, Triglycerides): 1.51** | EPA/AA, Triglycerides (Table 5.6) (ratio, Triglycerides): 1.51**
